Results as given in patent US20230322789A1, “PYRAZOLOPYRIDAZINONE COMPOUND, AND PHARMACEUTICAL COMPOSITION AND USE THEREOF” (BroadenBio Co., Ltd., priority 2020, published 2023).

These compounds were tested against HPK1 (Homo sapiens (Human), UniProt Q92918) (assay: HPK1 kinase activity inhibition test (ADP-Glo, luminescence)). Conditions: HPK1 5 nM, ATP 2 μM, read-out: IC50, inhibitory effects of compounds on HPK1 kinase activity.
HPK1, sequence (Q92918 whole entry): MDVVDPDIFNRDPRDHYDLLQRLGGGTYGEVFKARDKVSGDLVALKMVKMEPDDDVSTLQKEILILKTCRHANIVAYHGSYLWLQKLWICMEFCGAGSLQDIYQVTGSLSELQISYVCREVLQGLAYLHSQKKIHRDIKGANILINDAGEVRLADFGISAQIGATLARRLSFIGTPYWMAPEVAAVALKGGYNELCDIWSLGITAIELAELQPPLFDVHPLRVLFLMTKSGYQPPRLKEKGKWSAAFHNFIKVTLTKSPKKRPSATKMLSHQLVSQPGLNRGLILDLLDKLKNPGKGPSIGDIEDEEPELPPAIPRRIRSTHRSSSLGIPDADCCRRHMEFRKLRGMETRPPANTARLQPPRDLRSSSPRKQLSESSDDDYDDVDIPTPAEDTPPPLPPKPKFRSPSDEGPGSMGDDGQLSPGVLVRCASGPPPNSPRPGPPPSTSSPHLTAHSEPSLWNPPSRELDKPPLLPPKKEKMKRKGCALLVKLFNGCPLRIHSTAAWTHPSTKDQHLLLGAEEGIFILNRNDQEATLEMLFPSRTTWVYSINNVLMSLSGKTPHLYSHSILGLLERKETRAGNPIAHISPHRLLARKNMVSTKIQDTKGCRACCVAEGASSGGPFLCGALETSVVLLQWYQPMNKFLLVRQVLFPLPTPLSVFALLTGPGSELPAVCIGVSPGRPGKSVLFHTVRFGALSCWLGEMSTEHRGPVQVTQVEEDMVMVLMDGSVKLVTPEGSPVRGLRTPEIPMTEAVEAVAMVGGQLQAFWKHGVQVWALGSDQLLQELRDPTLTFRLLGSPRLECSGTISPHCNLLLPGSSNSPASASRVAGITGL
Type: biochemical
Experimental: 1. HPK1 Kinase Activity Inhibition Test
The kinase activity of HPK1 is manifested as activity of autophosphorylation and phosphorylation of downstream substrates. In the process of autophosphorylation, additional substrates are not required, and ATP is consumed to generate ADP. The amount of the product was measured by ADP-Glo reagent and luminescence method to reflect kinase activity.
Test compounds: compounds prepared in the examples of this application.
Prepare compound stock solution: dissolve the compound to be tested in 100% DMSO to make a 10 mM stock solution;
Prepare 4× Kinase Reaction Buffer:
Prepare 2×HPK1 Kinase Solution:
Dilute the stock solution of the compound to be tested by 5 times with […], make a 4-fold equal dilution in a 96-well dilution plate, add 1 μL of the compound to 49 µL of kinase reaction buffer, and shake on a microplate shaker for 20 minutes. Transfer 2 μL of […] kinase solution to 384 reaction plate, add 1 μL of the test compound to the 384 reaction plate (Greiner, 784075), centrifuge for 1 minute (1000 rpm/min), incubate at 25° C. for 10 minutes. Transfer […] of the 4×ATP mixture to a 384 reaction plate, centrifuge for 1 minute (1000 rpm/mm), and incubate at 25° C. for 60 minutes. In the reaction system, the final concentration of DMSO was […]. Transfer 4 μL of ADP-Glo to a 384 reaction plate, centrifuge for 1 minute (1000 rpm/min), and incubate at 25° C. for 40 minutes. Transfer 8 μL detection solution to a 384 reaction plate, centrifuge for 1 minute (1000 rpm/min), and incubate at 25° C. for 40 minutes. The […] signal was read using a Biotek multi-function plate reader, and the […] (half inhibitory concentration) of the compound was obtained using a four-coefficient nonlinear fitting formula.
For `COc1ccc(-n2nc3c(-c4ccc(C5=CCN(C)CC5)cc4)n[nH]c3cc2=O)c(OC)c1` [Compound 4, 5-(2,4-dimethoxyphenyl)-3-(4-(1-methyl-1,2,3,6-tetrahydropyridin-4-yl)phenyl)-1H-pyrazolo[4,3-c]pyridazin-6(5H)-one], the IC50 was ≤ 50 nM. `Cc1cccc(F)c1-n1nc2c(-c3ccc4c(c3)C(=O)N(C)CC4)n[nH]c2cc1=O` [Compound 183] was tested, and the IC50 was 500 to 2000 nM. For `COc1cccc(F)c1-n1nc2c(-c3ccc(N4CCOCC4)cc3)n[nH]c2cc1=O` [Compound 92, 5-(2-fluoro-6-methoxyphenyl)-3-(4-morpholinophenyl)-1H-pyrazolo[4,3-c]pyridazin-6(5H)-one], the IC50 was ≤ 50 nM. `Cc1cccc(F)c1-n1nc2c(-c3ccc(N4CCN(C)C(C(=O)O)C4)cc3)n[nH]c2cc1=O` (stereo not drawn) [Compound 131, 4-(4-(5-(2-fluoro-6-methylphenyl)-6-oxo-5,6-dihydro-1H-pyrazolo[4,3-c]pyridazin-3-yl)phenyl)-1-methylpiperazin-2-carboxylic acid] gave an IC50 of 50 to 500 nM. `Cc1cccc(F)c1-n1nc2c(-c3cnc4c(c3)CN(C)CC4)n[nH]c2cc1=O` [Compound 187, 5-(2-fluoro-6-methylphenyl)-3-(6-methyl-5,6,7,8-tetrahydro-1,6-naphthyridin-3-yl)-1H-pyrazolo[4,3-c]pyridazin-6(5H)-one] gave an IC50 of 50 to 500 nM. For `Cc1cccc(F)c1-n1nc2c(-c3ccc4c(c3)CCN(C3CN(C)C3)C4)n[nH]c2cc1=O` [Compound 194, 5-(2-fluoro-6-methylphenyl)-3-(2-(1-methylazetidin-3-yl)-1,2,3,4-tetrahydroisoquinolin-6-yl)-1H-pyrazolo[4,3-c]pyridazin-6(5H)-one], the IC50 was ≤ 50 nM. In the case of `Cc1cccc(F)c1-n1nc2c(-c3ccc(N4CCN(CC(F)F)CC4)cc3)n[nH]c2cc1=O` [Compound 84], the IC50 is reported as 50 to 500 nM. `CCc1cccc(F)c1-n1nc2c(-c3cnc(N4CCN(C)CC4)nc3)n[nH]c2cc1=O` [Compound 110, 5-(2-ethyl-6-fluorophenyl)-3-(2-(4-methylpiperazin-1-yl)pyrimidin-5-yl)-1H-pyrazolo[4,3-c]pyridazin-6(5H)-one] showed an IC50 of 50 to 500 nM. `COc1cccc(F)c1-n1nc2c(-c3ccc(N4CCN5C(=O)OCC5C4)cc3)n[nH]c2cc1=O` (stereo not drawn) [Compound 123, 7-(4-(5-(2-fluoro-6-methoxyphenyl)-6-oxo-5,6-dihydro-1H-pyrazolo[4,3-c]pyridazin-3-yl)phenyl)tetrahydro-1H-oxazolo[3,4-a]pyrazin-3(5H)-one] was tested, and the IC50 was ≤ 50 nM. With `COc1cc(C)c(-n2nc3c(-c4ccc(N5CCN(C)CC5)cc4)n[nH]c3cc2=O)cn1` [Compound 149] the IC50 was 500 to 2000 nM. `COc1cccc(F)c1-n1nc2c(-c3ccc(C4CCN(C)CC4)cc3)n[nH]c2cc1=O` [Compound 24, 5-(2-fluoro-6-methoxyphenyl)-3-(4-(1-methylpiperidin-4-yl)phenyl)-1H-pyrazolo[4,3-c]pyridazin-6(5H)-one] was tested, and the IC50 was ≤ 50 nM. In the case of `Cc1cccc(F)c1-n1nc2c(-c3cccc(N4CC5CCC(C4)N5C)c3)n[nH]c2cc1=O` [Compound 201, 5-(2-fluoro-6-methylphenyl)-3-(3-(8-methyl-3,8-diazabicyclo[3.2.1]octan-3-yl)phenyl)-1H-pyrazolo[4,3-c]pyridazin-6(5H)-one], the IC50 is reported as ≤ 50 nM. In the case of `COc1cccc(F)c1-n1nc2c(-c3ccc4c(c3)CCN(C)C4)n[nH]c2cc1=O` [Compound 72, 5-(2-fluoro-6-methoxyphenyl)-3-(2-methyl-1,2,3,4-tetrahydroisoquinolin-6-yl)-1H-pyrazolo[4,3-c]pyridazin-6(5H)-one], the IC50 is reported as 50 to 500 nM. `COc1cccc(F)c1-n1nc2c(-c3cc4c(cc3F)CCN(C)C4)n[nH]c2cc1=O` [Compound 191, 3-(6-fluoro-2-methyl-1,2,3,4-tetrahydroisoquinolin-7-yl)-5-(2-fluoro-6-methoxyphenyl)-1H-pyrazolo[4,3-c]pyridazin-6(5H)-one] was tested, and the IC50 was 50 to 500 nM. `Cc1cccc(F)c1-n1nc2c(-c3ccc(N4CCS(=O)(=O)CC4)nc3)n[nH]c2cc1=O` [Compound 104, 3-(6-(1,1-dioxidothiomorpholino)pyrid-3-yl)-5-(2-fluoro-6-methylphenyl)-1H-pyrazolo[4,3-c]pyridazin-6(5H)-one] gave an IC50 of 50 to 500 nM. `Cc1cccc(F)c1-n1nc2c(-c3ccc4c(c3)CCN(C3CCOCC3)C4)n[nH]c2cc1=O` [Compound 195, 5-(2-fluoro-6-methylphenyl)-3-(2-(tetrahydro-2H-pyran-4-yl)-1,2,3,4-tetrahydroisoquinolin-6-yl)-1H-pyrazolo[4,3-c]pyridazin-6(5H)-one] gave an IC50 of 50 to 500 nM. `COc1cc(C#N)cc(F)c1-n1nc2c(-c3cccc(N4CC5CCC(C4)N5C)c3)n[nH]c2cc1=O` [Compound 203, 3-fluoro-5-methoxy-4-(3-(3-(8-methyl-3,8-diazabicyclo[3.2.1]octan-3-yl)phenyl)-6-oxo-1H-pyrazolo[4,3-c]pyridazin-5(6H)-yl)benzonitrile] was tested, and the IC50 was ≤ 50 nM. In the case of `CN1CCN(c2ccc(-c3n[nH]c4cc(=O)n(-c5cccc6c5COC6)nc34)cc2)CC1` [Compound 75, 5-(1,3-dihydroisobenzofuran-4-yl)-3-(4-(4-methylpiperazin-1-yl)phenyl)-1H-pyrazolo[4,3-c]pyridazin-6(5H)-one], the IC50 is reported as 500 to 2000 nM. `COC[C@@H]1Cc2ccc(-c3n[nH]c4cc(=O)n(-c5c(C)cccc5F)nc34)cc2CN1C` [Compound 180, (S)-5-(2-fluoro-6-methylphenyl)-3-(3-(methoxymethyl)-2-methyl-1,2,3,4-tetrahydroisoquinolin-7-yl)-1H-pyrazolo[4,3-c]pyridazin-6(5H)-one] was tested, and the IC50 was ≤ 50 nM. In the case of `Cc1cc(Cl)cc(F)c1-n1nc2c(-c3ccc(N4CCN(C)CC4)cc3)n[nH]c2cc1=O` [Compound 78, 5-(4-chloro-2-fluoro-6-methylphenyl)-3-(4-(4-methylpiperazin-1-yl)phenyl)-1H-pyrazolo[4,3-c]pyridazin-6(5H)-one], the IC50 is reported as 50 to 500 nM. In the case of `Cc1cccc(F)c1-n1nc2c(-c3cnc(N4CCOCC4)nc3)n[nH]c2cc1=O` [Compound 32, 5-(2-fluoro-6-methylphenyl)-3-(2-morpholinylpyrimidin-5-yl)-1H-pyrazolo[4,3-c]pyridazin-6(5H)-one], the IC50 is reported as 50 to 500 nM. Compound `COc1cccc(C)c1-n1nc2c(-c3ccc(N4CCN(C)CC4)nc3)n[nH]c2cc1=O` [Compound 97, 5-(2-methoxy-6-methylphenyl)-3-(6-(4-methylpiperazin-1-yl)pyrid-3-yl)-1H-pyrazolo[4,3-c]pyridazin-6(5H)-one] has an IC50 of 50 to 500 nM. In the case of `COc1ccncc1-n1nc2c(-c3ccc(N4CCN(C)CC4)cc3)n[nH]c2cc1=O` [Compound 48, 5-(4-methoxypyrid-3-yl)-3-(4-(4-methylpiperazin-1-yl)phenyl)-1H-pyrazolo[4,3-c]pyridazin-6(5H)-one], the IC50 is reported as 50 to 500 nM. Work on `CC(=O)N1CCN(c2ccc(-c3n[nH]c4cc(=O)n(-c5c(C)cccc5F)nc34)cn2)CC1` [Compound 102, 3-(6-(4-acetylpiperazin-1-yl)pyrid-3-yl)-5-(2-fluoro-6-methylphenyl)-1H-pyrazolo[4,3-c]pyridazin-6(5H)-one] yielded an IC50 of 50 to 500 nM. Compound `Cc1cccc(F)c1-n1nc2c(-c3ccc4c(c3)CN3CCOC[C@@H]3C4)n[nH]c2cc1=O` [Compound 181, (S)-5-(2-fluoro-6-methylphenyl)-3-(1,3,4,6,11,11a-hexahydro-[1,4]oxazino[4,3-b]isoquinolin-8-yl)-1H-pyrazolo[4,3-c]pyridazin-6(5H)-one] has an IC50 of 50 to 500 nM. In the case of `Cc1cccc(F)c1-n1nc2c(-c3ccc4c(c3)CN(C)C4)n[nH]c2cc1=O` [Compound 197, 5-(2-fluoro-6-methylphenyl)-3-(2-methylisoindolin-5-yl)-1H-pyrazolo[4,3-c]pyridazin-6(5H)-one], the IC50 is reported as ≤ 50 nM. Compound `Cc1ccncc1-n1nc2c(-c3ccc(C4=CCN(C)CC4)cc3)n[nH]c2cc1=O` [Compound 150, 3-(4-(1-methyl-1,2,3,6-tetrahydropyridin-4-yl)phenyl)-5-(4-methylpyrid-3-yl)-1H-pyrazolo[4,3-c]pyridazin-6(5H)-one] has an IC50 of 500 to 2000 nM. `Cc1cccc(F)c1-n1nc2c(-c3ccc4c(c3)CN(C)C(C)(C)C4)n[nH]c2cc1=O` [Compound 178, 5-(2-fluoro-6-methylphenyl)-3-(2,3,3-trimethyl-1,2,3,4-tetrahydroisoquinolin-7-yl)-1H-pyrazolo[4,3-c]pyridazin-6(5H)-one] gave an IC50 of 50 to 500 nM. `Cc1cccc(F)c1-n1nc2c(-c3ccc(N4CCN(C)CC4)c(CN(C)C)c3)n[nH]c2cc1=O` [Compound 95, 3-(3-((dimethylamino)methyl)-4-(4-methylpiperazin-1-yl)phenyl)-5-(2-fluoro-6-methylphenyl)-1H-pyrazolo[4,3-c]pyridazin-6(5H)-one] gave an IC50 of 50 to 500 nM. With `Cc1cccc(F)c1-n1nc2c(-c3ccc(N4CCN5C(=O)OCC5C4)cc3)n[nH]c2cc1=O` (stereo not drawn) [Compound 122, 7-(4-(5-(2-fluoro-6-methylphenyl)-6-oxo-5,6-dihydro-1H-pyrazolo[4,3-c]pyridazin-3-yl)phenyl)tetrahydro-1H-oxazolo[3,4-a]pyrazin-3(5H)-one] the IC50 was ≤ 50 nM.
